{"source": "patent US20090081174A1", "about": "(priority 2005, published 2009)", "key": {"Plasmopara viticola": {"tested_on": "Plasmopara viticola", "experiment": "7-day preventive activity on Plasmopara viticola, leaf application on vines", "type": "in vivo", "protocol": "Leaves of cultivar Merlot vines, grown in vases, in a conditioned environment (20±1° C., 70% relative humidity) are treated by spraying both sides of the leaves with the mixtures under examination dispersed in an aqueous solution containing a 0.3% of tween 20.\nAfter remaining 7 days in a conditioned environment, the plants are infected on the lower side with an aqueous suspension of spores of Plasmopara viticola (200,000 spores per cm^3).\nThe plants are kept in a humidity saturated environment, at 21° C., for the incubation period of the fungus and, at the end of this period (7 days), the fungicidal activity is evaluated according to an evaluation percentage scale from 100 (healthy plant) to 0 (completely infected plant).\nFrom the data indicated in tables 1-2, it is possible to verify the synergistic effect of the mixtures, consisting of the mixtures being examined, compared with the expected efficacy using the Limpel formula (“Pesticide Science” (1987), vol. 19, pages 309-315): […]\nwherein: • E is the fungicidal activity expected, in the absence of synergistic effects, from a mixture obtained by mixing g·x of compound X with g·y of compound Y; • x is the activity of compound X when used alone with a dosage of g·x; • y is the activity of compound Y when used alone with a dosage of g·y. […]"}, "Phytophthora infestans": {"tested_on": "Phytophthora infestans", "type": "in vivo", "conditions": "potato plants, scale 100 to 0"}}, "note": "Like-named read-outs stand apart in the source and are kept apart here."}
{"compound": "O=[PH]([O-])[O-].[Cu+2]", "note": "[CuHPO3, copper (II) salt of phosphorous acid]", "values": [{"measurement": "Activity (y)", "setting": "Plasmopara viticola; listed phosphite salt(s) alone at 250 ppm equivalent phosphorous acid, scale 100 to 0", "value": 35}, {"measurement": "Activity (y)", "setting": "Phytophthora infestans; Table 4: listed phosphite salt(s) alone at 750 ppm equivalent phosphorous acid", "value": 12}, {"measurement": "Activity (y)", "setting": "Phytophthora infestans; Table 5: listed phosphite salt(s) alone at 750 ppm equivalent phosphorous acid", "value": 12}]}
{"compound": "K2HPO3 [Mixture K2HPO3]", "values": [{"measurement": "Activity (y)", "setting": "Plasmopara viticola; listed salt alone at 500 ppm equivalent phosphorous acid, scale 100 (healthy) to 0 (completely infected)", "value": 45}, {"measurement": "Activity (y)", "setting": "Phytophthora infestans; listed salt alone at 750 ppm equivalent phosphorous acid", "value": 5}]}
